Measured values from patent US10434083B2, “Transmammary delivery of cyclooxygenase-2 inhibitors for analgesia in neonates” (Iowa State University Research Foundation, Inc., priority 2018, dated 2019).
Read-outs that look alike come from different tables or passages of the source.

What was measured:
[1] = Firocoxib pharmacokinetics in sows following IM administration (Example 2); format: in vivo, swine; conditions: for AUC(0-t) / AUC(0-inf) / CL/F / Cmax / MRT inf / Tmax / MRT last / Vd/F / half-life: female, Yorkshire×Landrace, plasma; for AUC(0-t) / AUC(0-inf): im; for MRT last: read-out: MRT0-last; for Vd/F: read-out: VZ/F; for half-life: read-out: plasma elimination half-life (T1/2λz), range over dose groups
Description: (§1) Protocols involved intramuscular injection of Firocoxib to lactating sows at either 0.5, 1.0, 1.5 or 2 mg/kg, and analysis in sows and select piglets at 21 days post treatment. Pregnant Yorkshire×Landrace sows (mean±SEM bodyweight, 250.3±7.61 kg) that were approximately 1 week before farrowing were sourced from a commercial swine farm. Each sow was examined by a veterinarian to confirm that she was healthy and pregnant. A unique numerical ear tag (Allflex Global Ear Tags, Allflex USA, Inc., DFW Airport, TX) was placed in the right ear of each sow for identification. The sows were housed in a commercial swine operation at MVS (West Point, Nebr.) in accordance with the recommendations in the Guide for the Care and Use of Agricultural Animals in Agricultural Use and Research and Teaching (Guide for the Care and Use of Agricultural Animals in Agricultural Research and Teaching, 2010). Sows were placed in Quad- or Euro-style farrowing stalls (Thorp Equipment, Thorp, Wis.), depending on availability. Regardless of stall type, each sow was housed in a farrowing crate measuring 0.6 m×2.1 m. Quad and Euro crates had piglet creep areas of 7.0 m^2 and 6.4 m^2, respectively. After farrowing, a heat lamp was provided on one side of the creep area for the piglets in each crate. All sows were fed a diet that met or exceeded National Research Council (NRC, 2012) nutrient requirements and water was provided ad libitum. Each litter provided at least six male and three female piglets for sampling with the exception of one sow that had 5 males and 4 females in the litter, and one sow that had 3 males and 6 females in the litter. Piglets were clinically examined and weighed on Study Day 0 prior to dosing. Cross fostering of the litters was permitted. Bodyweights were used to randomly assign sows to 1 of 4 treatment groups (n=4 sows/group) as detailed in Table 3.
(§2) A sample size of 4 sows was selected to describe the pharmacokinetics of firocoxib. For the comparison of plasma cortisol concentrations and average daily gain in bodyweight (ADG), a sample size of 36 piglets/treatment group was calculated to provide Statistical Power of 0.8 assuming an alpha of 0.05, sigma of 0.54 and delta of 0.20. At the time of study commencement (T0), sows received a single dose of firocoxib (Equioxx Injection, Merial, Duluth, Ga.) (Lot number 4VP07, Expiration Date November 2017) administered at either 0.5 mg/kg, 1.0 mg/kg, 1.5 mg/kg, or 2.0 mg/kg by IM injection into the right lateral neck using an 18-gauge, 1.5-inch needle attached to a 20-mL syringe (Table 3). In cases where the calculated dose volume exceeded 20-mL, the remaining volume was administered via IM injection in the left lateral neck muscle.
Blood samples for firocoxib determination were collected from the sows and three piglets/litter (two male and one female piglet at each time point) at 0, 2, 4, 6, 8, 12, 24, 48, 72, 96, and 120 h post-drug injection to the sow. The blood sample from each sow (8 mL/sample) was collected via the left or right jugular vein using a 25.4-mm, 16-gauge hypodermic needle (Air-Tite Products, Virginia Beach, Va.) attached to a 12-mL Luer-Lok syringe (TycoHealth Care, Mansfield, Mass.). During blood collection, a pig snare was used for manual restraint of each sow in her crate. The blood samples (2 mL/sample) from the piglets were collected from the left or right cranial vena cava using a 3.8-cm, 20-gauge hypodermic needle (TycoHealth Care, Mansfield, Mass.) attached to a 3-mL syringe (TycoHealth Care, Mansfield, Mass.). Physical restraint of the piglet was achieved by placing the animal in a supine position during sample collection. Blood samples were transferred to 6-mL evacuated tubes that contained lithium heparin (Vacuette plasma tubes, Greiner Bio-One, Monroe, N.C.) that were stored on ice for up to 2 h before processing. The blood samples were centrifuged for 10 min at 1,500×g. The plasma was then removed, placed in cryovials, and frozen at −80° C. until analysis. […]

[2] = Preweaning piglet deaths per sow treatment group; format: in vivo, swine
Description: as §1, §2

For `CC1(C)OC(=O)C(OCC2CC2)=C1c1ccc(S(C)(=O)=O)cc1` [firocoxib], the AUC(0-t) ([1]; pig, 0.5 mg/kg, sow dose 0.5 mg/kg (Table 7), read-out: Sow AUClast) was 1530 ng·h/mL, the AUC(0-inf) ([1]; pig, 0.5 mg/kg, sow dose 0.5 mg/kg (Table 7), read-out: Sow AUC∞) was 1590 ng·h/mL and the AUC(0-t) ([1]; pig, 0.5 mg/kg, sows, 0.5 mg/kg IM, mean, read-out: AUC0-24h) was 1030 ng·h/mL. For the same compound, the AUC(0-t) ([1]; pig, 0.5 mg/kg, sows, 0.5 mg/kg IM, mean, read-out: AUC0-last) was 1530 ng·h/mL, the AUC(0-inf) ([1]; pig, 0.5 mg/kg, sows, 0.5 mg/kg IM, mean, read-out: AUCINF) was 1590 ng·h/mL and the AUC(0-t) ([1]; pig, 1 mg/kg, sow dose 1.0 mg/kg (Table 7), read-out: Sow AUClast) was 5330 ng·h/mL. For the same compound, the AUC(0-inf) ([1]; pig, 1 mg/kg, sow dose 1.0 mg/kg (Table 7), read-out: Sow AUC∞) was 5620 ng·h/mL, the AUC(0-t) ([1]; pig, 1 mg/kg, sows, 1.0 mg/kg IM, mean, read-out: AUC0-24h) was 2670 ng·h/mL and the AUC(0-t) ([1]; pig, 1 mg/kg, sows, 1.0 mg/kg IM, mean, read-out: AUC0-last) was 5330 ng·h/mL. The AUC(0-inf) ([1]; pig, 1 mg/kg, sows, 1.0 mg/kg IM, mean, read-out: AUCINF) was 5620 ng·h/mL, the AUC(0-t) ([1]; pig, 1.5 mg/kg, sow dose 1.5 mg/kg (Table 7), read-out: Sow AUClast) was 8320 ng·h/mL and the AUC(0-inf) ([1]; pig, 1.5 mg/kg, sow dose 1.5 mg/kg (Table 7), read-out: Sow AUC∞) was 8660 ng·h/mL. For the same compound, the AUC(0-t) ([1]; pig, 1.5 mg/kg, sows, 1.5 mg/kg IM, mean, read-out: AUC0-24h) was 4840 ng·h/mL, the AUC(0-t) ([1]; pig, 1.5 mg/kg, sows, 1.5 mg/kg IM, mean, read-out: AUC0-last) was 8320 ng·h/mL and the AUC(0-inf) ([1]; pig, 1.5 mg/kg, sows, 1.5 mg/kg IM, mean, read-out: AUCINF) was 8660 ng·h/mL. For the same compound, the AUC(0-t) ([1]; pig, 2 mg/kg, sow dose 2.0 mg/kg (Table 7), read-out: Sow AUClast) was 12700 ng·h/mL, the AUC(0-inf) ([1]; pig, 2 mg/kg, sow dose 2.0 mg/kg (Table 7), read-out: Sow AUC∞) was 13700 ng·h/mL and the AUC(0-t) ([1]; pig, 2 mg/kg, sows, 2.0 mg/kg IM, mean, read-out: AUC0-24h) was 6640 ng·h/mL. For the same compound, the AUC(0-t) ([1]; pig, 2 mg/kg, sows, 2.0 mg/kg IM, mean, read-out: AUC0-last) was 12700 ng·h/mL, the AUC(0-inf) ([1]; pig, 2 mg/kg, sows, 2.0 mg/kg IM, mean, read-out: AUCINF) was 13700 ng·h/mL and the CL/F ([1]; pig, sows, 0.5 mg/kg IM, mean) was 5.5 mL/min/kg. The Cmax ([1]; pig, sows, 0.5 mg/kg IM, mean) was 108 ± 15.2 ng/mL, the MRT inf ([1]; pig, sows, 0.5 mg/kg IM, mean) was 29.4 h and the Tmax ([1]; pig, sows, 0.5 mg/kg IM, mean) was 3.5 h. It also gave an MRT last ([1]; pig, sows, 0.5 mg/kg IM, mean) of 27.2 h, a Vd/F ([1]; pig, sows, 0.5 mg/kg IM, mean) of 13.8 L/kg and a CL/F ([1]; pig, sows, 1.0 mg/kg IM, mean) of 3.5 mL/min/kg. It also gave a Cmax ([1]; pig, sows, 1.0 mg/kg IM, mean) of 158 ± 24.9 ng/mL, an MRT inf ([1]; pig, sows, 1.0 mg/kg IM, mean) of 34.8 h and a Tmax ([1]; pig, sows, 1.0 mg/kg IM, mean) of 5.5 h. It also gave an MRT last ([1]; pig, sows, 1.0 mg/kg IM, mean) of 29.4 h, a Vd/F ([1]; pig, sows, 1.0 mg/kg IM, mean) of 7.82 L/kg and a CL/F ([1]; pig, sows, 1.5 mg/kg IM, mean) of 3.17 mL/min/kg. For the same compound, the Cmax ([1]; pig, sows, 1.5 mg/kg IM, mean) was 344 ± 78.9 ng/mL, the MRT inf ([1]; pig, sows, 1.5 mg/kg IM, mean) was 33.5 h and the Tmax ([1]; pig, sows, 1.5 mg/kg IM, mean) was 3 h. The MRT last ([1]; pig, sows, 1.5 mg/kg IM, mean) was 26.4 h, the Vd/F ([1]; pig, sows, 1.5 mg/kg IM, mean) was 9.12 L/kg and the CL/F ([1]; pig, sows, 2.0 mg/kg IM, mean) was 3 mL/min/kg. The Cmax ([1]; pig, sows, 2.0 mg/kg IM, mean) was 453 ± 90.3 ng/mL, the MRT inf ([1]; pig, sows, 2.0 mg/kg IM, mean) was 36.8 h and the Tmax ([1]; pig, sows, 2.0 mg/kg IM, mean) was 4.5 h. The MRT last ([1]; pig, sows, 2.0 mg/kg IM, mean) was 29.1 h, the Vd/F ([1]; pig, sows, 2.0 mg/kg IM, mean) was 7.75 L/kg and the half-life ([1]; pig, sows, 0.5-2.0 mg/kg IM) was 26.7 to 31.1 h. The half-life ([1]; swine, sows, 0.5-2.0 mg/kg IM) was 26.7 to 31.1 h, the AUC_Exp ([1]; sows, 0.5 mg/kg IM, mean) was 3.39% and the AUMC ([1]; sows, 0.5 mg/kg IM, mean) was 31765 h^2 × ng/mL. The T1/2λZ ([1]; sows, 0.5 mg/kg IM, mean) was 28.87 h, the λZ ([1]; sows, 0.5 mg/kg IM, mean) was 0.03 h⁻¹ and the AUC_Exp ([1]; sows, 1.0 mg/kg IM, mean) was 4.15%. The AUMC ([1]; sows, 1.0 mg/kg IM, mean) was 164892 h^2 × ng/mL, the T1/2λZ ([1]; sows, 1.0 mg/kg IM, mean) was 26.70 h and the λZ ([1]; sows, 1.0 mg/kg IM, mean) was 0.03 h⁻¹. For the same compound, the AUC_Exp ([1]; sows, 1.5 mg/kg IM, mean) was 4.98%, the AUMC ([1]; sows, 1.5 mg/kg IM, mean) was 215365 h^2 × ng/mL and the T1/2λZ ([1]; sows, 1.5 mg/kg IM, mean) was 29.89 h. For the same compound, the λZ ([1]; sows, 1.5 mg/kg IM, mean) was 0.02 h⁻¹, the AUC_Exp ([1]; sows, 2.0 mg/kg IM, mean) was 5.61% and the AUMC ([1]; sows, 2.0 mg/kg IM, mean) was 392753 h^2 × ng/mL. The T1/2λZ ([1]; sows, 2.0 mg/kg IM, mean) was 31.09 h, the λZ ([1]; sows, 2.0 mg/kg IM, mean) was 0.02 h⁻¹ and the “volume of distribution, range over dose groups” value ([1]; sows, 0.5-2.0 mg/kg IM) was 7.75 to 13.8 L/kg. For the same compound, the “volume of distribution in sows, fold larger than flunixin” value ([1]; vs flunixin (0.30 L/kg) in pigs) was “approximately 26 fold”, the “elimination half-life in sows, fold longer than flunixin” value ([1]; vs flunixin (7.5 h) in pigs) was about 4 fold and the “volume of distribution in sows, fold greater than ketoprofen” value ([1]; vs ketoprofen (0.35 L/kg) in pigs) was about 22 fold. The “elimination half-life in sows, fold longer than ketoprofen” value ([1]; vs ketoprofen (3 h) in pigs) was “approximately 10 fold”, the “volume of distribution in sows, fold greater than meloxicam” value ([1]; vs meloxicam (0.42 L/kg) in pigs) was about 18 fold and the “elimination half-life in sows, fold longer than meloxicam” value ([1]; vs meloxicam (6 h) in pigs) was about 5 fold. For the same compound, the “Preweaning piglet deaths, Total” value ([2]; sow treatment group #1, 0.5 mg/kg) was 2, the “Preweaning piglet deaths, Total” value ([2]; sow treatment group #2, 1.0 mg/kg) was 3 and the “Preweaning piglet deaths, Total” value ([2]; sow treatment group #3, 1.5 mg/kg) was 3. For the same compound, the “Preweaning piglet deaths, Total” value ([2]; sow treatment group #4, 2.0 mg/kg) was 0.
